Legend:
[1] = system: human β-defensin-1 (hBD-1); settings: human immortalized keratinocyte cells (HaCaT cells); Patent Literature 1; cited from earlier work
[2] = system: Escherichia coli NBRC 3972; test: Sterilizing (microorganism growth inhibiting) effect, viable bacterial count; type: cell-based; settings: one hour after inoculation, room temperature, phosphate-buffered saline, vs control; FIG. 1, result in words
Experimental: Escherichia coli (Escherichia coli NBRC 3972) was used as a test bacterium. Escherichia coli was inoculated onto a standard agar medium and cultured at 30° C. to 35° C. for 24 hours. After culturing, the bacterial count was adjusted to […] using saline, whereby a test bacterial solution was obtained. Phosphate-buffered saline and ergothioneine were mixed to prepare a test sample 1 (ergothioneine concentration: 100 ppm (0.01 wt %)). Phosphate-buffered saline and isoquercitrin were mixed to prepare a test sample 2 (isoquercitrin concentration: 100 ppm (0.01 wt %)). Phosphate-buffered saline, ergothioneine, and isoquercitrin were mixed to prepare a test sample 3 (ergothioneine concentration: 2.5 ppm (0.00025 wt %), isoquercitrin concentration: 100 ppm (0.01 wt %)). Phosphate-buffered saline, ergothioneine, and isoquercitrin were mixed to prepare a test sample 4 (ergothioneine concentration: 100 ppm (0.01 wt %), isoquercitrin concentration: 100 ppm (0.01 wt %)). Phosphate-buffered saline was used as control. A test sample (5 mL) was inoculated with a 0.05 mL test bacterial solution and left standing at room temperature. […] After culturing, the number of colonies formed was counted, and the viable bacterial count was calculated (n=3). The sterilizing effect (%) was determined from the viable bacterial count (average of n=3) using the following formula. […]

[3] = system: human β-defensin-3 (hBD-3); settings: human immortalized keratinocyte cells (HaCaT cells); Patent Literature 1; cited from earlier work
Staphylococcus aureus = settings: Non-Patent Literature 1; cited from earlier work
Escherichia coli = settings: Non-Patent Literature 1; cited from earlier work

Compound	expression level of mRNA in hBD-1 [1]	Sterilizing effect on Escherichia coli [2]	expression level of mRNA in hBD-3 [3]	inhibition of growth of Staphylococcus aureus (Staphylococcus aureus)	inhibition of growth of Escherichia coli (Escherichia coli)
C[N+](C)(C)[C@@H](Cc1c[nH]c(=S)[nH]1)C(=O)[O-] [L-ergothioneine]	increased	no sterilizing effect	increased		
O=c1c(O)c(-c2ccc(O)c(O)c2)oc2cc(O)cc(O)c12 [quercetin]				inhibition of growth	inhibition of growth

Reference: patent US20250082610A1, “COMPOSITION, METHOD FOR MICROORGANISM GROWTH SUPPRESSION IN COMPOSITION FOR ORAL USE, AND AGENT FOR POTENTIATION OF MICROORGANISM-GROWTH-SUPPRESSING EFFECT OF QUERCETIN OR GLYCOSIDE THEREOF” (SUNTORY HOLDINGS LIMITED, priority 2022, published 2025)
